# Data from ChEMBL document CHEMBL4715926, “Synthesis of Resolvin E1 and Its Conformationally Restricted Cyclopropane Congeners with Potent Anti-Inflammatory Effect” (2021).
# Active and inactive are the calls of the source. The rule behind the calls is not given here.
# Tested on: Mus musculus
# Assay: Antiinflammatory activity in BALB/c mouse assessed as inhibition of heat killed Propionibacterium acnes-induced neutrophil influx at 300 pg, ip administered 12 hrs after Propionibacterium acnes stimulation and measured after 24 hrs by flow cytometry analysis
# Assay type: functional
Compound,inhibition,inhibition (INH)
CC[C@@H](O)/C=C/C=C\C[C@@H](O)/C=C/C=C/C=C\[C@@H](O)[C@@H]1C[C@H]1C(=O)O,Active,
CC[C@@H](O)/C=C/C=C\C[C@@H](O)/C=C/C=C/C=C\[C@@H](O)[C@H]1C[C@@H]1C(=O)O,,50%
CC[C@@H](O)/C=C/C=C\C[C@@H](O)/C=C/C=C/C=C\[C@@H](O)[C@@H]1C[C@@H]1C(=O)O,Active,
CC[C@@H](O)/C=C/C=C\C[C@@H](O)/C=C/C=C/C=C\[C@@H](O)CCCC(=O)O [RESOLVIN E1],,31%
CC[C@@H](O)/C=C/C=C\C[C@@H](O)/C=C/C=C/C=C\[C@@H](O)[C@H]1C[C@H]1C(=O)O,Active,
